Read-outs that look alike come from different tables or passages of the source.
Experiments:
[1] = molecular target: T1, α3β4 nAChR (Rattus norvegicus, UniProt P04757+P12392); assay: biochemical; assay type: binding; parameters: host or cells: HEK293 (KXα3β4R2); conditions: for K′: chromatographic (NLC and van't Hoff); for ΔG° / ΔH° / ΔS°: chromatographic (van't Hoff)
[2] = test system: nAChR, SH-SY5Y cells; assay: Rb+ efflux assay, SH-SY5Y cells; assay type: cell-based, human; conditions: cell line SH-SY5Y
[3] = test system: nAChR, PC-12 cells; assay: Rb+ efflux assay, PC-12 cells; assay type: cell-based, rat; conditions: cell line PC-12
[4] = molecular target: T1, α3β4 nAChR; assay: Nicotine-stimulated 86Rb+ efflux assay, KXα3β4R2 cell line; assay type: cell-based; parameters: host or cells: HEK293 (KXα3β4R2)
Experimental: After the prediction has been done based on clustering the actual values of IC50 were determined using the nicotine-stimulated ^86Rb^+ efflux assay on cell line KXα3β4R2.

[5] = molecular target: T1, α3β4 nAChR; conditions: nicotine concentration of ~300 μM or higher; cited from earlier work
[6] = molecular target: K177 (α4β2) (Homo sapiens, UniProt P17787+P43681); assay: Rb+ efflux assay, K177 cells
[7] = α3β4 nAChR, NLC, read-out: koff dissociation constant rate
[8] = α3β4 nAChR, NLC, read-out: kon association constant rate
[9] = α3β4 nAChR, NLC, read-out: log K chromatographic equilibrium constant (converted)
[10] = α3β4 nAChR, 10 μM, 20 μl injected, ammonium acetate 10 mM pH 7.4/methanol 85:15
[11] = nicotine-stimulated 86Rb+ efflux, cell line KXα3β4R2, read-out: IC50
[12] = IC50, nicotine-stimulated 86Rb+ efflux, cell line KXα3β4R2
[13] = IC50, nicotine-stimulated 86Rb+ efflux, α3β4 nAChR
[14] = IC50 of Rb+ efflux, cell line KXα3β4R2
[15] = chromatographic (NLC), read-out: Koff
[16] = chromatographic (NLC), read-out: Kon
[17] = chromatographic (NLC), read-out: logKa (converted)
[18] = IC50, nicotine stimulated Rb+ efflux

T1 sequence (P04757 26-499): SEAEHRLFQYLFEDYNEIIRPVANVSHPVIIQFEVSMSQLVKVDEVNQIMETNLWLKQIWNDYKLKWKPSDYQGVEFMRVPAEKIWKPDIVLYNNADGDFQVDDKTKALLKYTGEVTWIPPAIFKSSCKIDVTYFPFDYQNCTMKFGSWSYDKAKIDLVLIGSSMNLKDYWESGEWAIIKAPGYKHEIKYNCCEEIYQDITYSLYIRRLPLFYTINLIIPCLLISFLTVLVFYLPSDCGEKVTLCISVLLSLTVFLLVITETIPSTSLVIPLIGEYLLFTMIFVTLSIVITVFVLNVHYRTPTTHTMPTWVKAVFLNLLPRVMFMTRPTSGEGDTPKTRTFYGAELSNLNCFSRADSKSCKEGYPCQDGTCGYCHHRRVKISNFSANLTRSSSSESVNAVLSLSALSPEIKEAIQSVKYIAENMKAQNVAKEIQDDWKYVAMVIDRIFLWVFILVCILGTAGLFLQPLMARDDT
T1 sequence (P12392 21-495): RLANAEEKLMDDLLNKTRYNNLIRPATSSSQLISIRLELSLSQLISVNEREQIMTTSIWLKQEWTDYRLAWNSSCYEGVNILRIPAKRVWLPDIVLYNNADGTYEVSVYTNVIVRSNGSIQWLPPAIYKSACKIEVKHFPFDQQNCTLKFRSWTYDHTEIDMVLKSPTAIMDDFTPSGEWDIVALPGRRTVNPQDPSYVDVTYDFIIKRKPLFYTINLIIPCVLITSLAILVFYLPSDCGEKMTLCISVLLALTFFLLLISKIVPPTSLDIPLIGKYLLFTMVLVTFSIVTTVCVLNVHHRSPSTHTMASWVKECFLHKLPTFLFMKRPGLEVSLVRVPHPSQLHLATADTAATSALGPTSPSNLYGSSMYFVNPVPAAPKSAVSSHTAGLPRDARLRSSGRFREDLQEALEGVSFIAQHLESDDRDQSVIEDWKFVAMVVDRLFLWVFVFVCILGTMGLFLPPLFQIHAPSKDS
Sequence of K177 (α4β2) (P43681 27-627): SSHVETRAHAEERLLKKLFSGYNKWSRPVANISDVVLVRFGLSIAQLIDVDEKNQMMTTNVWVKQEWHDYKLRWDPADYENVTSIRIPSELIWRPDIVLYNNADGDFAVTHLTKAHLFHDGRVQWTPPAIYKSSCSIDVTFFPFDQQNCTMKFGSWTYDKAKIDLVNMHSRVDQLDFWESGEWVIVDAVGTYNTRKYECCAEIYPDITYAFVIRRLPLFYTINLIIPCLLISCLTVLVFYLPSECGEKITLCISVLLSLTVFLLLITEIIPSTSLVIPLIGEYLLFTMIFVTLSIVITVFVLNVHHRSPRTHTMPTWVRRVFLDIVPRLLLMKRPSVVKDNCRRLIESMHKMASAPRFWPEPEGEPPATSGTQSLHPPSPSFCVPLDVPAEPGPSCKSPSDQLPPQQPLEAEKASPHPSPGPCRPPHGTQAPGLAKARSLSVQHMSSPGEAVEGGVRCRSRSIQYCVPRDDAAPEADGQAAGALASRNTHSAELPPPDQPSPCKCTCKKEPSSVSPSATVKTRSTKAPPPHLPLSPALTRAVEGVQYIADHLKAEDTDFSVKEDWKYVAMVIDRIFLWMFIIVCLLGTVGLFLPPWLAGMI
Sequence of K177 (α4β2) (P17787 26-502): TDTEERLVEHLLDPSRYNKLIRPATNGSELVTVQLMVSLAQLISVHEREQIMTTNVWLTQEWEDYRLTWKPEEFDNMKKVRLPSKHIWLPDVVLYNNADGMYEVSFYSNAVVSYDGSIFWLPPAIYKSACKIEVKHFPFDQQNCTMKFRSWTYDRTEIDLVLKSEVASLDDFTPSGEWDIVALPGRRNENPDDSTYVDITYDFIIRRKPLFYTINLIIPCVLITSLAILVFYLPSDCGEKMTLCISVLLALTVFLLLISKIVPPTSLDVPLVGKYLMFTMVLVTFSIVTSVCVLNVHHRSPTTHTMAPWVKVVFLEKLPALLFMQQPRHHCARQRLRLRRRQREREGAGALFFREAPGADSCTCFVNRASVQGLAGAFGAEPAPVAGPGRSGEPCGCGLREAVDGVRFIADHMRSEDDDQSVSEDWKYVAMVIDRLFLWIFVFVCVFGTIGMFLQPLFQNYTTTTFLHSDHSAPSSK

| Structure (SMILES) | koff [1, 7] [s⁻¹] | kon [1, 8] [M⁻¹ s⁻¹] | Kd [1, 9] [µM] | k′(NLC) retention capacity factor [1, 10] | further results |
| --- | --- | --- | --- | --- | --- |
| COc1ccc(C(=O)O)cc1OC [dimethoxybenzoic ac., 3,4-dimethoxybenzoic acid] | 18.2 | 9.8e+06 | 1.86 | 4.46 | – |
| CC(=O)Nc1ccc(O)cc1 [acetaminophen] | 17.2 | 8.4e+06 | 2.04 | 5.30 | – |
| CCCCC1C(=O)N(c2ccccc2)N(c2ccccc2)C1=O [phenylbutazone] | 22.2 | 8.7e+06 | 2.57 | – | – |
| CNC1(c2ccccc2Cl)CCCCC1=O (stereo not drawn) [ketamine] | 8.5 | 3.84e+07 | 0.224 | 8.25 | IC50 [2]: 1.4 µM; IC50 [3]: 5.2 µM |
| COc1ccc(CCNCCCC(C#N)(c2ccc(OC)c(OC)c2)C(C)C)cc1OC (single isomer, unassigned) [nor-verapamil-S, nor-verapamil] | – | – | 0.0398 | 97.86 | koff dissociation constant rate ([1]; α3β4 nAChR, NLC): 0.61 s⁻¹ |
| CC(=O)Nc1ccccc1 [acetanilide] | 25.5 | 8.2e+06 | 3.09 | 5.95 | – |
| COc1ccc([C@@H]2Sc3ccccc3N(CCN(C)C)C(=O)[C@@H]2OC(C)=O)cc1 [dilthiazem] | – | – | – | 43.53 | logk′ ([1]; α3β4 nAChR): 1.64; koff dissociation constant rate ([1]; α3β4 nAChR, NLC): 1.60 s⁻¹; log K chromatographic equilibrium constant ([1]; α3β4 nAChR, NLC): 7.22 M^−1; IC50 ([4]; cell line KXα3β4R2, read-out: IC50 of Rb+ efflux): 2.26 µM; IC50 [4, 11]: 2.2 µM; IC50 ([4]; nicotine-stimulated 86Rb+ efflux, α3β4 nAChR, read-out: IC50): 2.3 µM |
| COc1ccc(C(C#N)(CCCN)C(C)C)cc1OC [Compound D-620] | – | – | – | 17.72 | logk′ ([1]; α3β4 nAChR): 1.25; koff dissociation constant rate ([1]; α3β4 nAChR, NLC): 3.43 s⁻¹; log K chromatographic equilibrium constant ([1]; α3β4 nAChR, NLC): 6.53 M^−1; IC50 [4, 11]: 48.9 µM |
| CCOC(=O)C1=C(COCCN)NC(C)=C(C(=O)OC)C1c1ccccc1Cl (stereo not drawn) [amlodipine] | – | – | – | – | IC50 [4, 12]: 5.8 µM |
| C[C@]12N[C@H](Cc3ccccc31)c1ccccc12 [MK-801] | 3.48 | 2.71e+07 | 0.129 | 19.10 | – |
| COc1ccc2c(c1)[C@@]13CCCC[C@H]1[C@@H](C2)NCC3 [3 MM] | – | – | – | 56.47 | koff dissociation constant rate ([1]; α3β4 nAChR, NLC): 1.00 s⁻¹; log K chromatographic equilibrium constant ([1]; α3β4 nAChR, NLC): 7.28 M^−1 |
| COC(=O)C1=C(C)NC(C)=C(C(=O)OCCN(C)Cc2ccccc2)C1c1cccc([N+](=O)[O-])c1 (stereo not drawn) [nicardapine] | – | – | – | – | logk′ ([1]; α3β4 nAChR): 2.33; IC50 [4, 11]: 2.5 µM |
| CNC1(C)C2CCC(C2)C1(C)C (stereo not drawn) [mecamylamine] | – | – | – | – | k′(NLC) retention capacity factor ([1]; pH 7.4): 10.89 |
| CN1CC[C@@]23CCCC[C@@H]2[C@@H]1Cc1ccc(O)cc13 [dextrorphan] | 2.3 | 2.07e+07 | 0.112 | – | – |
| COc1ccc(CCNCCCC(C#N)(c2ccc(OC)c(OC)c2)C(C)C)cc1OC (stereo not drawn) [nor-verapamil] | – | – | – | – | enantioselectivity of binding towards nicotinic affinity column ([1]; chromatographic experiments and NLC data): did not exhibit noticeable differences between enantiomers; logk′ ([1]; α3β4 nAChR): 1.99; IC50 [4, 12]: 2.6 µM; IC50 [4, 13]: 2.1 µM; IC50 [4, 14]: 2.6 µM |
| CN[C@@H](C)Cc1ccccc1 [methamphetamine] | 6.81 | 2.91e+07 | 0.234 | 8.38 | – |
| NC12CC3CC(CC(C3)C1)C2 [amantadine] | 6.73 | 3.08e+07 | 0.219 | 8.98 | – |

| Structure (SMILES) | koff [1, 7] [s⁻¹] | kon [1, 8] [M⁻¹ s⁻¹] | Kd [1, 9] [µM] | k′(NLC) retention capacity factor [1, 10] | further results |
| --- | --- | --- | --- | --- | --- |
| COc1ccc(CCN(C)CCCC(C#N)(c2cc(OC)c(OC)c(OC)c2)C(C)C)cc1OC (stereo not drawn) [galapamil] | – | – | – | 75.93 | logk′ ([1]; α3β4 nAChR): 1.88; koff dissociation constant rate ([1]; α3β4 nAChR, NLC): 0.74 s⁻¹; log K chromatographic equilibrium constant ([1]; α3β4 nAChR, NLC): 7.43 M^−1; IC50 [4, 11]: 6.4 µM |
| c1ccc(C2(N3CCCCC3)CCCCC2)cc1 [phenylcyclidine] | 2.69 | 2.32e+07 | 0.115 | 24.06 | IC50 [2]: 5.9 µM; IC50 [4, 14]: 7 µM |
| CC(NC(C)(C)C)C(=O)c1cccc(Cl)c1 (stereo not drawn) [bupropion] | 5.14 | 2.87e+07 | 0.178 | 12.97 | IC50 [2]: 1.4 µM |
| O=C(O)c1ccc([N+](=O)[O-])cc1[N+](=O)[O-] [dinitrobenzoic acid, 2,4-dinitrobenzoic acid] | – | – | – | 7.77 | Kd ([1]; log K chromatographic equilibrium constant, α3β4 nAChR, NLC): 1.35 µM; koff dissociation constant rate ([1]; α3β4 nAChR, NLC): 12.12 s⁻¹ |
| CN1CCCC1c1cccnc1 (stereo not drawn) [nicotine] | – | – | – | – | maximum 86Rb+ efflux [5]: ~45 % of the amount loaded |
| COc1ccc2c(c1)[C@@]13CCCC[C@H]1[C@@H](C2)N(C)CC3 [levomethorphan] | 1.55 | 1.86e+07 | 0.0832 | 35.81 | K′ [1]: 35.81 (±0.15); Ka ([1]; chromatographic (NLC)): 12.01 (±0.23) μM^−1; koff [1, 15]: 1.55 s⁻¹; kon [1, 16]: 1.86e+07 M⁻¹ s⁻¹; Kd [1, 17]: 0.0832 µM; ΔG° [1]: −2.04 (±0.4) kcal mol^−1; ΔH° [1]: −6.59 (±0.18) kcal mol^−1; ΔS° [1]: −15.20 (0.6) cal mol^−1T^−1; IC50 [4, 18]: 10.9 µM; IC50 [4, 14]: 10.9 µM |
| CC[n+]1c(-c2ccccc2)c2cc(N)ccc2c2ccc(N)cc21 [ethidium] | 0.18 | 3.59e+07 | 0.00501 | 191.82 | – |
| CCC(=O)C(CC(C)N(C)C)(c1ccccc1)c1ccccc1 (stereo not drawn) [methadone] | 1.37 | 1.59e+07 | 0.0871 | 44.45 | IC50 [4, 14]: 1.9 µM |
| CNCCN1C(=O)[C@H](O)[C@H](c2ccc(O)cc2)Sc2ccccc21 [Compound M6] | – | – | – | – | logk′ ([1]; α3β4 nAChR): 1.48; IC50 [4, 11]: 63.1 µM |
| COc1ccc2c(c1)[C@]13CCCC[C@@H]1[C@H](C2)N(C)CC3 [dextromethorphan] | 1.01 | 2.37e+07 | 0.0427 | 61.30 | difference in ΔG of the complexes ([1]; DM vs LM, chromatographic experiments): 1.3 kJ/mol; K′ [1]: 61.30 (±0.27); Ka ([1]; chromatographic (NLC)): 23.40 (±0.36) μM^−1; koff [1, 15]: 1.01 s⁻¹; kon [1, 16]: 2.37e+07 M⁻¹ s⁻¹; Kd [1, 17]: 0.0427 µM; ΔG° [1]: −2.33 (±0.4) kcal mol^−1; ΔH° [1]: −6.92 (±0.19) kcal mol^−1; ΔS° [1]: −15.70 (±0.7) cal mol^−1T^−1; IC50 [4, 18]: 10.1 µM; IC50 [4, 13]: 10 µM; IC50 [4, 14]: 10.1 µM |
| CC12CC3CC(C)(C1)CC(N)(C3)C2 [memantine] | 3.45 | 1.88e+07 | 0.182 | 16.71 | IC50 [6]: 6.6 µM |
| COc1ccc(CC2c3cc(OC)c(OC)cc3CCN2C)cc1OC (stereo not drawn) [laudanosine] | 2.18 | 2.5e+07 | 0.0871 | 22.87 | – |
| CNCCCC(C#N)(c1ccc(OC)c(OC)c1)C(C)C [Compound D-617] | – | – | – | 22.22 | koff dissociation constant rate ([1]; α3β4 nAChR, NLC): 2.72 s⁻¹; log K chromatographic equilibrium constant ([1]; α3β4 nAChR, NLC): 6.74 M^−1 |
| CN(C)CCN1C(=O)[C@H](O)[C@H](c2ccc(O)cc2)Sc2ccccc21 [Compound M4] | – | – | – | – | logk′ ([1]; α3β4 nAChR): 1.45; IC50 [4, 11]: 73.2 µM |
| CNCCN1C(=O)[C@H](OC(C)=O)[C@H](c2ccc(OC)cc2)Sc2ccccc21 [MA] | – | – | – | – | logk′ ([1]; α3β4 nAChR): 1.61; IC50 [4, 11]: 4.2 µM |
| COc1ccc(CCNCCCC(C#N)(c2ccc(OC)c(OC)c2)C(C)C)cc1OC (single isomer, unassigned) [nor-verapamil-R, nor-verapamil] | 0.58 | 1.6e+07 | 0.0363 | 97.99 | – |

Source: US7749984B2, “Computer-based model for identification and characterization of non-competitive inhibitors of nicotinic acetylcholine receptors and related ligand-gated ion channel receptors” (priority 2003, dated 2010)
